Laboratory results published in ChEMBL document CHEMBL6178023 (J Med Chem, 2025).
In brackets after ≈: the same amount, converted by molar mass. Activity calls are given as the source filed them. The rule behind the calls is not given here.

Key:
[1] = Aqueous solubility of compound in PBS at pH 7.4; type: physicochemical
Polyprotein P1234 = Polyprotein P1234 (Chikungunya virus (strain S27-African prototype) (CHIKV), UniProt Q8JUX6); assay: Inhibition of N-terminal 6-His/SUMO-tagged CHIKV 181/25 nsP2 extracted from Escherichia coli Rosetta 2 preincubated for 30 mins followed by ATP addition measured after 1 hr by ADP-Glo assay
Sequence of Polyprotein P1234 (Q8JUX6 536-1333 limits assumed): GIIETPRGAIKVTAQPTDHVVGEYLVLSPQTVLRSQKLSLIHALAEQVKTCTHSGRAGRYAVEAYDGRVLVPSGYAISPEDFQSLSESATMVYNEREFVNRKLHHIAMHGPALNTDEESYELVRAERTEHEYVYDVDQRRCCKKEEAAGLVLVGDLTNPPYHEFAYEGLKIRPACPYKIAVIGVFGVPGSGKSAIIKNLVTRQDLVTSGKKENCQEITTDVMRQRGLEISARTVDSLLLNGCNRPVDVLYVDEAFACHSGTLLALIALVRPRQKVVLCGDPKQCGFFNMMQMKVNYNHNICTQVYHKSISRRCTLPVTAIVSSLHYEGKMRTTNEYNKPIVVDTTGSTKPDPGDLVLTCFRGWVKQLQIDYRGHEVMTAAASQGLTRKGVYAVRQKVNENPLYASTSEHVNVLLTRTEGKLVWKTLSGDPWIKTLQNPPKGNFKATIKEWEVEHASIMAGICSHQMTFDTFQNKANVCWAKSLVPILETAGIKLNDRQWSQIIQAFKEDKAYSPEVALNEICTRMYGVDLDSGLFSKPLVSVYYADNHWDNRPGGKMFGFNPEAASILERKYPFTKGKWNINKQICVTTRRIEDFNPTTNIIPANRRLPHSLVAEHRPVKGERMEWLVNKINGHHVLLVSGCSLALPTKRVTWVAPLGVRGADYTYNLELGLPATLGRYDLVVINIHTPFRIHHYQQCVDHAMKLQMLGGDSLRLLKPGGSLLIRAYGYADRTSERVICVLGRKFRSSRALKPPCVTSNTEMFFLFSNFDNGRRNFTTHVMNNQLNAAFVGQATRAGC

MRC5 = assay: Cytotoxicity against human MRC5 cells at 10 to 40 uM by Cell Titer Glo assay; type: toxicity, cell-based; conditions: mrc5, 40 µM, dose 10-40 µM
Chikungunya virus [2] = assay: Antiviral activity against CHIKV 181/25 expressing nLuc-capsid gene infected in human MRC5 cells assessed as reduction in viral replication preincubated with cells for 1 hr followed by viral infection measured after 6 hrs post-infection by Nano-glo luciferase assay; type: functional, organism-based
Chikungunya virus [3] = assay: Inhibition of N-terminal 6-His/SUMO-tagged CHIKV 181/25 nsP2 extracted from Escherichia coli Rosetta 2 at 200 uM preincubated for 30 mins followed by ATP addition measured after 1 hr by ADP-Glo assay relative to control; conditions: time 90.0 min
[4] = 181/25, MRC5, read-out: pEC50 (converted)

| Structure (SMILES) | solubility kinetic [1] [µM] | IC50 (Polyprotein P1234) [µM] | Activity (MRC5) | EC50 (Chikungunya virus [2]; [4]) [µM] | inhibition (Chikungunya virus [3]) | EC50 (Chikungunya virus [2]; 181/25, MRC5, read-out: EC50) [µM] |
| --- | --- | --- | --- | --- | --- | --- |
| COc1cccc(C(=O)NCC2CCOC3(CCN(C(=O)C4(c5ccccc5)CCCC4)CC3)C2)c1 (configuration not stated) | 19 (≈ 9.32 µg/mL) | > 39.8 | Non-toxic | 5.01 | 70% | – |
| CS(=O)(=O)N(Cc1ccccc1)CC1CCOC2(CCN(C(=O)C3(c4ccccc4)CCCC3)CC2)C1 (configuration not stated) | < 1 | – | Non-toxic | 10 | inactive | – |
| O=C(N1CCC2(CC1)CC(CNCc1ccccc1)CCO2)C1(c2ccccc2)CCCC1 (configuration not stated) | 180 (≈ 80.4 µg/mL) | > 39.8 | Non-toxic | 10 | – | – |
| CN(C)S(=O)(=O)NCC1CCOC2(CCN(C(=O)C3(c4ccccc4F)CCCC3)CC2)C1 (configuration not stated) | – | 31.6 | Non-toxic | 5.01 | – | – |
| CCN(C)S(=O)(=O)NCC1CCOC2(CCN(C(=O)C3(c4ccccc4)CCCC3)CC2)C1 (configuration not stated) | 160 (≈ 76.4 µg/mL) | 15.8 | Non-toxic | 3.98 | – | – |
| O=C(N1CCC2(CC1)CC(CNCC(F)(F)F)CCO2)C1(c2ccccc2)CCCC1 (configuration not stated) | 170 (≈ 74.6 µg/mL) | > 39.8 | Non-toxic | 12.6 | – | – |
| O=C(NCC1CCOC2(CCN(C(=O)C3(c4ccccc4)CCCC3)CC2)C1)C1CC1 (configuration not stated) | 160 (≈ 67.9 µg/mL) | > 39.8 | Non-toxic | 3.98 | 80% | – |
| CN(C)S(=O)(=O)NCC1CCOC2(CCN(C(=O)C3(c4cccc(C(F)(F)F)c4)CCCC3)CC2)C1 (configuration not stated) | – | > 39.8 | Non-toxic | 100 | 40% | – |
| O=C(NCC1CCOC2(CCN(C(=O)C3(c4ccccc4)CCCC3)CC2)C1)Nc1ccccc1 (configuration not stated) | 10 (≈ 4.76 µg/mL) | 15.8 | Non-toxic | 1.26 | – | – |
| CN(CC1CCOC2(CCN(C(=O)C3(c4ccccc4)CCCC3)CC2)C1)C(=O)c1ccccn1 (configuration not stated) | 180 (≈ 85.6 µg/mL) | > 39.8 | Non-toxic | 5.01 | 80% | – |
| CC(C)NC(=O)NCC1CCOC2(CCN(C(=O)C3(c4ccccc4)CCCC3)CC2)C1 (configuration not stated) | 180 (≈ 79.5 µg/mL) | > 39.8 | Non-toxic | 15.8 | 50% | – |
| O=C(NCC1CCOC2(CCN(C(=O)C3(c4ccccc4)CCCC3)CC2)C1)c1ccccn1 (configuration not stated) | 190 (≈ 87.7 µg/mL) | > 39.8 | Non-toxic | 1.58 | 90% | – |
| O=C(N1CCC2(CC1)CC(CNS(=O)(=O)c1ccccc1)CCO2)C1(c2ccccc2)CCCC1 (configuration not stated) | 1 (≈ 0.497 µg/mL) | > 39.8 | Non-toxic | 3.98 | 40% | – |
| CN(C)S(=O)(=O)NCC1CCOC2(CCN(C(=O)C3(c4ccccc4Cl)CCCC3)CC2)C1 (configuration not stated) | – | 7.94 | Non-toxic | 1.26 | – | – |
| NC(=O)NCC1CCOC2(CCN(C(=O)C3(c4ccccc4)CCCC3)CC2)C1 (configuration not stated) | 190 (≈ 75.9 µg/mL) | > 39.8 | Non-toxic | 12.6 | 50% | – |
| O=C(N1CCC2(CC1)CC(Nc1ccccc1)CCO2)C1(c2ccccc2)CCCC1 (configuration not stated) | 20 (≈ 8.37 µg/mL) | 15.8 | Non-toxic | 5.01 | – | – |
| O=C(NCC1CCOC2(CCN(C(=O)C3(c4ccccc4)CCCC3)CC2)C1)C1CCCCC1 (configuration not stated) | 130 (≈ 60.7 µg/mL) | 31.6 | Non-toxic | 2.51 | – | – |
| CS(=O)(=O)NCC1CCOC2(CCN(C(=O)C3(c4cccc(Cl)c4)CCCC3)CC2)C1 (configuration not stated) | – | 20 | Non-toxic | 2.51 | – | – |
| O=C(NCC1CCOC2(CCN(C(=O)C3(c4ccccc4)CCCC3)CC2)C1)c1cccnc1 (configuration not stated) | 90 (≈ 41.5 µg/mL) | 12.6 | Non-toxic | 2.51 | – | – |
| O=C(N1CCC2(CC1)CC(CNS(=O)(=O)C1CC1)CCO2)C1(c2ccccc2)CCCC1 (configuration not stated) | 180 (≈ 82.9 µg/mL) | 20 | Non-toxic | 3.98 | – | – |
| CN(CC1CCOC2(CCN(C(=O)C3(c4ccccc4)CCCC3)CC2)C1)S(=O)(=O)CCCCl (configuration not stated) | 50 (≈ 25.6 µg/mL) | 1 | Non-toxic | 0.398 | – | – |
| CN(CC1CCOC2(CCN(C(=O)C3(c4ccccc4)CCCC3)CC2)C1)S(C)(=O)=O (configuration not stated) | 180 (≈ 80.8 µg/mL) | 3.16 | Non-toxic | 1.26 | – | – |
| COc1ccc(C(=O)NCC2CCOC3(CCN(C(=O)C4(c5ccccc5)CCCC4)CC3)C2)cc1 (configuration not stated) | 35 (≈ 17.2 µg/mL) | 20 | Non-toxic | 3.98 | – | – |
| O=C1CCC(=O)N1CC1CCOC2(CCN(C(=O)C3(c4ccccc4)CCCC3)CC2)C1 (configuration not stated) | 160 (≈ 70.2 µg/mL) | 1.26 | Non-toxic | 1 | – | – |

| Structure (SMILES) | solubility kinetic [1] [µM] | IC50 (Polyprotein P1234) [µM] | Activity (MRC5) | EC50 (Chikungunya virus [2]; [4]) [µM] | inhibition (Chikungunya virus [3]) | EC50 (Chikungunya virus [2]; 181/25, MRC5, read-out: EC50) [µM] |
| --- | --- | --- | --- | --- | --- | --- |
| O=C(CCCCl)NCC1CCOC2(CCN(C(=O)C3(c4ccccc4)CCCC3)CC2)C1 (configuration not stated) | 170 (≈ 78.4 µg/mL) | 2 | Non-toxic | 0.316 | – | – |
| Cc1ccnc(NC2CCOC3(CCN(C(=O)C4(c5ccccc5)CCCC4)CC3)C2)c1 (configuration not stated) | 70 (≈ 30.4 µg/mL) | > 39.8 | Non-toxic | 6.31 | 70% | – |
| CS(=O)(=O)NCC1CCOC2(CCN(C(=O)C3(c4ccccc4)CCCCC3)CC2)C1 (configuration not stated) | 230 (≈ 103 µg/mL) | > 39.8 | Non-toxic | 15.8 | 80% | – |
| O=C(N1CCC2(CC1)CC(CNS(=O)(=O)CCCCl)CCO2)C1(c2ccccc2)CCCC1 (configuration not stated) | 100 (≈ 49.7 µg/mL) | 2 | Non-toxic | 0.631 | – | – |
| O=C(NCC1CCOC2(CCN(C(=O)C3(c4ccccc4)CCCC3)CC2)C1)c1ccncc1 (configuration not stated) | 170 (≈ 78.5 µg/mL) | > 39.8 | Non-toxic | 10 | 70% | – |
| O=C(N1CCC2(CC1)CC(CNS(=O)(=O)CCCCCl)CCO2)C1(c2ccccc2)CCCC1 (configuration not stated) | 60 (≈ 30.7 µg/mL) | 10 | Non-toxic | 1.26 | – | – |
| CN(C)S(=O)(=O)NCC1CCOC2(CCN(C(=O)C3(c4ccccc4)CCCC3)CC2)C1 (configuration not stated) | 200 (≈ 92.7 µg/mL) | > 39.8 | Non-toxic | 2.51 | 90% | – |
| CCS(=O)(=O)NCC1CCOC2(CCN(C(=O)C3(c4ccccc4)CCCC3)CC2)C1 (configuration not stated) | 230 (≈ 103 µg/mL) | > 39.8 | Non-toxic | 3.16 | 70% | – |
| COc1ccc(NC(=O)NCC2CCOC3(CCN(C(=O)C4(c5ccccc5)CCCC4)CC3)C2)cc1 (configuration not stated) | 10 (≈ 5.06 µg/mL) | 20 | Non-toxic | 3.98 | – | – |
| CN(C)S(=O)(=O)N(C)CC1CCOC2(CCN(C(=O)C3(c4ccccc4)CCCC3)CC2)C1 (configuration not stated) | 160 (≈ 76.4 µg/mL) | 5.01 | Non-toxic | 1.58 | – | – |
| Cc1cccc(C2(C(=O)N3CCC4(CC3)CC(CNS(=O)(=O)N(C)C)CCO4)CCCC2)c1 (configuration not stated) | – | > 39.8 | Non-toxic | 3.98 | 90% | – |
| O=C(N1CCC2(CC1)CC(CN1CCCCS1(=O)=O)CCO2)C1(c2cc(F)cc(F)c2)CCCC1 (configuration not stated) | 4 (≈ 2.04 µg/mL) | 0.398 | Non-toxic | 0.1 | – | – |
| O=c1nc(NO)ccn1[C@@H]1O[C@H](CO)[C@@H](O)[C@H]1O [N-HYDROXYCYTIDINE] | – | – | – | – | – | 1.2 |
| O=C(NCC1CCOC2(CCN(C(=O)C3(c4ccccc4)CCCC3)CC2)C1)c1ccccc1 (configuration not stated) | 70 (≈ 32.2 µg/mL) | 15.8 | Non-toxic | 2.51 | – | – |
| COc1ccccc1NC(=O)NCC1CCOC2(CCN(C(=O)C3(c4ccccc4)CCCC3)CC2)C1 (configuration not stated) | < 10 | – | Non-toxic | 3.98 | inactive | – |
| O=C(N1CCC2(CC1)CC(CN1CCCS1(=O)=O)CCO2)C1(c2ccccc2)CCCC1 (configuration not stated) | > 220 | 1.58 | Non-toxic | 0.398 | – | – |
| COc1cccc(C2(C(=O)N3CCC4(CC3)CC(CNS(=O)(=O)N(C)C)CCO4)CCCC2)c1 (configuration not stated) | – | > 39.8 | Non-toxic | 6.31 | 80% | – |
| O=C(N1CCC2(CC1)CC(Oc1ccccn1)CCO2)C1(c2ccccc2)CCCC1 (configuration not stated) | 20 (≈ 8.41 µg/mL) | > 39.8 | Non-toxic | 1.26 | 60% | – |
| O=C(N1CCC2(CC1)CC(CN1CCCCS1(=O)=O)CCO2)C1(c2ccccc2F)CCCC1 (configuration not stated) | 190 (≈ 93.6 µg/mL) | 1 | Non-toxic | 0.251 | – | – |
| CCCCCC(=O)NCC1CCOC2(CCN(C(=O)C3(c4ccccc4)CCCC3)CC2)C1 (configuration not stated) | 60 (≈ 27.3 µg/mL) | 6.31 | Non-toxic | 2 | – | – |
| CC(C)C(=O)NCC1CCOC2(CCN(C(=O)C3(c4ccccc4)CCCC3)CC2)C1 (configuration not stated) | 170 (≈ 72.5 µg/mL) | > 39.8 | Non-toxic | 3.98 | 80% | – |
| O=C1CCCN1CC1CCOC2(CCN(C(=O)C3(c4ccccc4)CCCC3)CC2)C1 (configuration not stated) | 200 (≈ 84.9 µg/mL) | > 39.8 | Non-toxic | 2.51 | 90% | – |
| CCCCCCN(CC1CCOC2(CCN(C(=O)C3(c4ccccc4)CCCC3)CC2)C1)S(C)(=O)=O (configuration not stated) | < 1 | 12.6 | Non-toxic | 1.58 | – | – |
